Data set [1] in a line: Anti-lymphangiogenic activity in HDLEC assessed as cell growth at 50 ug/ml incubated for 48 hrs by SRB staining based assay relative to control. The data set is classed as functional. To be noted: Homo sapiens, read-out: Activity.
For another data set, the species on record is Homo sapiens. Nature of the data set: Anti-lymphangiogenic activity in HDLEC assessed as reduction in tube formation at 50 ug/ml incubated for 8 hrs by matrigel tube formation based inverted phase contrast microscopic analysis. The data set is classed as functional.
Data set [2] can be described thus: Anti-lymphangiogenic activity in HDLEC assessed as reduction in tube formation incubated for 8 hrs by matrigel tube formation based inverted phase contrast microscopic analysis. The data set is classed as functional, Homo sapiens.
A short description of data set [3]: Cytotoxicity against HDLEC at 50 ug/ml incubated for 24 hrs by LDH assay. Particulars: human.
Data set [4] can be described thus: Anti-lymphangiogenic activity in HDLEC assessed as cell growth at 10 ug/ml incubated for 48 hrs by SRB staining based assay relative to control. The data set is classed as functional. To be noted: Homo sapiens, read-out: Activity. In general terms: The SRB assay estimates cell density from bound dye.

Calls of active or inactive are those of the source. No cut-off for these calls is given here.

`CC1=CC(=O)[C@@H]2[C@@H](C1)[C@]13CO[C@@]4([C@@H]1O)N1C[C@@H]5O[C@@]1(CC[C@@]4(C)[C@]1(COC(=O)C1)[C@H]3C(=O)[C@@H]2C)C[C@@H](C)[C@H]5O`: in data set [1], the growth at 50 µg/mL was determined as 98%.

Regarding `COC(=O)CNCC1=CC(=O)[C@@H]2[C@@H](C1)[C@]13C=C4N5C[C@H]6C[C@H](C)C[C@]5(CC[C@@]4(C)[C@]4(COC(=O)C4)[C@H]1[C@@](O)(OC3)[C@@H]2C)O6`, the inhibition entry in the data set filed under Homo sapiens is “Active”. In addition, in data set [1], the growth at 50 µg/mL was 38%. For the same molecule, in data set [2], the IC50 worked out at 68 µM. Moreover, the Activity result in data set [3] is recorded as “Non-Toxic”.

Turning to `C[C@H]1C[C@@H]2CN3[C@H]4C(=O)[C@@]56CO[C@]7(C)CC(=O)[C@@H]([C@H]5C7)[C@@H](C)C(=O)[C@@H]6[C@@]5(COC(=O)C5)[C@]4(C)CC[C@@]3(C1)O2`, in data set [1], the growth at 50 µg/mL was determined as 86%.

Consider `CC1=CC(=O)[C@@H]2[C@@H](C1)[C@]13C=C4N5C[C@@H]6O[C@@]5(CC[C@@]4(C)[C@]4(COC(=O)C4)[C@H]1[C@@](O)(OC3)[C@@H]2C)C[C@@H](C)[C@H]6O`, for which the growth at 50 µg/mL in data set [1] amounted to 101%.

In the case of `CC1=CC(=O)[C@@H]2[C@@H](C1)[C@]13C=C4N5C[C@H]6C[C@H](C)C[C@]5(CC[C@@]4(C)[C@]4(COC(=O)C4)[C@H]1[C@@](O)(OC3)[C@@H]2C)O6`, in data set [1], the growth at 50 µg/mL was found to be 88%.

As to `CO[C@H]1C[C@@H]2CC[C@@H](C)[C@@](O)(O2)C(=O)C(=O)N2CCCC[C@H]2C(=O)O[C@H]([C@H](C)C[C@@H]2CC[C@@H](O)[C@H](OC)C2)CC(=O)[C@H](C)/C=C(\C)[C@@H](O)[C@@H](OC)C(=O)[C@H](C)C[C@H](C)/C=C/C=C/C=C/1C` [SIROLIMUS], the growth at 10 µg/mL in data set [4] is 17%. In addition, the IC50 in data set [2] amounted to 57 µM.

As for `CC1=CC(=O)[C@@H]2[C@@H](C1)[C@]13CO[C@@]4([C@@H]1O)N1C[C@H]5C[C@H](C)C[C@@]1(O5)[C@@H](O)C[C@@]4(C)[C@]1(COC(=O)C1)[C@H]3C(=O)[C@@H]2C`, the growth at 50 µg/mL in data set [1] came to 100%.

In the case of `CC1=CC(=O)[C@@H]2[C@@H](C1)[C@]13C=C4N5C[C@H]6C[C@H](C)C[C@@]5(O6)[C@@H](O)C[C@@]4(C)[C@]4(COC(=O)C4)[C@H]1[C@@](O)(OC3)[C@@H]2C`, in data set [1], the growth at 50 µg/mL is 83%.

In the case of `C[C@H]1C[C@@H]2CN3C4=C[C@@]56CO[C@]7(C)CC(=O)[C@@H]([C@H]5C7)[C@@H](C)C(=O)[C@H]6[C@@]5(COC(=O)C5)[C@]4(C)CC[C@@]3(C1)O2`, the growth at 50 µg/mL in data set [1] turned out to be 82%.

`C[C@H]1C[C@@H]2CN3C4=C[C@@]56CO[C@]7(C)CC(=O)[C@@H]([C@H]5C7)[C@@H](C)C(=O)[C@@H]6[C@@]5(COC(=O)C5)[C@]4(C)CC[C@@]3(C1)O2`: in data set [1], the growth at 50 µg/mL was determined as 85%.

For `CC1=CC(=O)[C@@H]2[C@@H](C1)[C@]1(C)C=C3N4C[C@H]5C[C@H](C)C[C@]4(CC[C@@]3(C)[C@]3(COC(=O)C3)[C@H]1C(=O)[C@@H]2C)O5`, the growth at 50 µg/mL in data set [1] stood at 91%.

As to `CC1=CC(=O)[C@@H]2[C@@H](C1)[C@]1(C)C=C3N4C[C@@H]5O[C@@]4(CC[C@@]3(C)[C@]3(COC(=O)C3)[C@H]1C(=O)[C@@H]2C)C[C@@H](C)[C@H]5O`, the growth at 50 µg/mL in data set [1] was found to be 85%.

Regarding `COC(=O)CNCC1=CC(=O)[C@@H]2[C@@H](C1)[C@]13CO[C@@]4([C@@H]1O)N1C[C@H]5C[C@H](C)C[C@]1(CC[C@@]4(C)[C@]1(COC(=O)C1)[C@H]3C(=O)[C@@H]2C)O5`, the growth at 50 µg/mL in data set [1] was found to be 76%.

For the molecule `CC1=CC(=O)[C@@H]2[C@@H](C1)[C@]13CO[C@@]4([C@@H]1O)N1C[C@H]5C[C@H](C)C[C@]1(CC[C@@]4(C)[C@]1(COC(=O)C1)[C@H]3C(=O)[C@@H]2C)O5`, in data set [1], the growth at 50 µg/mL came to 81%.

`C[C@H]1C[C@@H]2CN3[C@](CC[C@@]4(C)[C@]5(COC(=O)C5)[C@H]5C(=O)[C@H](C)[C@@H]6C(=O)C=C(CO)C[C@H]6[C@@]56CO[C@@]34[C@@H]6O)(C1)O2`: the growth at 50 µg/mL in data set [1] is 66%.

Consider `C[C@H]1C[C@@H]2CN3C4=C[C@@]5(C)[C@@H]6CC(CO)=CC(=O)[C@H]6[C@@H](C)C(=O)[C@@H]5[C@@]5(COC(=O)C5)[C@]4(C)CC[C@@]3(C1)O2`, for which the inhibition entry in the data set filed under Homo sapiens is “Active”. In addition, the growth at 50 µg/mL in data set [1] came out at 56%. The IC50 in data set [2] was 98 µM. In data set [3], the Activity result is recorded as “Non-Toxic”.

In the case of `C[C@H]1C[C@@H]2CN3C4=C[C@@]56CO[C@@](O)([C@H](C)[C@@H]7C(=O)C=C(CO)C[C@H]75)[C@@H]6[C@@]5(COC(=O)C5)[C@]4(C)CC[C@@]3(C1)O2`, in the data set filed under Homo sapiens, the inhibition entry is “Active”. In addition, in data set [1], the growth at 50 µg/mL was determined as 60%. In addition, the IC50 in data set [2] was found to be 99 µM. Besides, the Activity result in data set [3] was “Non-Toxic”.

Take `CC1=CC(=O)[C@@H]2[C@@H]([C@@H]1O)[C@]1(C)C=C3N4C[C@H]5C[C@H](C)C[C@]4(CC[C@@]3(C)[C@]3(COC(=O)C3)[C@H]1C(=O)[C@@H]2C)O5`: the growth at 50 µg/mL in data set [1] is 75%.

One may read the IC50 as the midpoint of a concentration-inhibition curve.

The values are drawn from ChEMBL document CHEMBL4376824, “Anti-Lymphangiogenic Alkaloids from the Zoanthid Zoanthus vietnamensis Collected in Taiwan” (J Nat Prod, 2019).
